Measurements: patent US11254700B2, “GSK-3β inhibitors and use thereof in methods of treatment” (UNIVERSITY OF HAWAII, priority 2017, dated 2022)
“And” between values parts separate entries of the source, which are not always exact repeats. Equal entries are not always repeated. “Also recorded” adds a separate entry of the source. Where two headings read alike, the source gives them in different places.

Tests used:
GSK-3β [1] = biological target: T1, GSK-3β (Homo sapiens, UniProt P49841); experiment: Kinase luminescent assay (ADP-Glo), GSK-3β inhibition; type: biochemical; conditions: for IC50: 25 μM ATP, 1 hour, room temperature, mean of quadruplicate of two experiments, read-out: IC50 against GSK-3β
Method: Kinase Luminescent Assay.
Kinase inhibition was assessed with the ADP-Glo Kinase Assay. […] The reaction mixture was incubated for 1 hour at room temperature followed by the addition of the ADP-Glo′ reagents according to the manufacturer's protocol. The kinase inhibitor staurosporine was used at 1 μM as a reference control. Each data point was collected in quadruplicate of two independent experiments.
Target sequence in this assay (P49841 whole entry): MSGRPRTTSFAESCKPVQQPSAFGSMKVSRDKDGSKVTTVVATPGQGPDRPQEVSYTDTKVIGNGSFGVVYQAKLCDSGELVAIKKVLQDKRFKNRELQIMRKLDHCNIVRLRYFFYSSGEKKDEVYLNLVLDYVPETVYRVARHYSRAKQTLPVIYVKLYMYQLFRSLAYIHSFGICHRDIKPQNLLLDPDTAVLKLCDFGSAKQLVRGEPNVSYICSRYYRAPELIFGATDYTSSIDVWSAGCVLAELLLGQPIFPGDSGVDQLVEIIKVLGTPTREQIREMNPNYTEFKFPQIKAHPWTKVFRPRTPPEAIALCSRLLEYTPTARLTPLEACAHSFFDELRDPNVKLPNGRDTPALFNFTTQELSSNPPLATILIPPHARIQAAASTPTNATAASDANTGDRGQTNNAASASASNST

in vitro = conditions: for Pe / R (percent recovery): 20 μM; for permeability compared to isoorientin 1: 5-hour incubation
Method: Samples were run in quadruplicate.
Oral administration is noninvasive and is preferred for chronical diseases such as Alzheimer's disease and other CNS disorders. […] In the PAMPA model, the amount of target compounds diffused from a donor compartment to an acceptor compartment through a tri-layer phospholipid pre-coated membrane are measured to assess oral-absorption potential of drug candidates. In the present study, 1, 4, 9, 17, 21 and 30 were evaluated with the PAMPA assay.

[2] = system: GSK-3β-mediated tau phosphorylation (pS396) in SH-SY5Y lysate; experiment: Whole-cell lysate GSK-3β assay with human Tau pS396 ELISA; type: biochemical; conditions: for GSK-3β-mediated tau hyperphosphorylation at pS396: 2, 10 and 50 μM, 2 hours, 37° C., lysate with 0.25% GSK-3β
Method: Whole-Cell Lysate GSK-3β Assay.
The assay procedure was followed as described (Liang, et al. (2016) ACS Chem. Neurosci. 7:912-923). SH-SY5Y cells were washed with phosphate-buffered saline (PBS) and lysed with cell extraction buffer containing 10 mM Tris, pH 7.4, 100 mM NaCl, 1 mM EDTA, 1 mM EGTA, 1 mM NaF, 20 mM Na4P2O7, 2 mM Na3VO4, 1% Triton X-100, 10% glycerol, 0.1% sodium dodecyl sulfate (SDS), 0.5% sodium deoxycholate, 1 mM phenylmethanesulfonyl fluoride (PMSF) and a protease inhibitor cocktail. Lysate was diluted with kinase buffer (40 mM Tris, pH 7.5, 20 mM MgCl2, 50 μM DTT, 400 μM ATP) to afford a concentration of 5 μg/μL of total protein, and split into aliquots. Recombinant human GSK-3β was fortified into lysate aliquots to a final concentration of 0.25% (wt/wt) of total protein. A lysate aliquot fortified with heat-inactivated GSK-3β was used as a negative control. The fortified lysate aliquots were incubated with test sample or 5% DMSO vehicle at 37° C. for 2 hours followed by ELISA analysis.
The quantitative determination of phosphorylated human tau at GSK-3β specific pS396 site was conducted by taking 50 μL diluted cell lysate and using a specific antibody against human tau [pS396] in a sandwich ELISA according to the manufacturer's protocol. Tau phosphorylation was quantified by measuring the absorbance at 450 nm in a microtiter plate reader. The analysis was collected in quadruplicate of two independent experiments.

GSK-3β [3] = biological target: T1, GSK-3β; experiment: GSK-3β kinetics (Lineweaver-Burk), ATP or substrate GS2 competition; type: biochemical; conditions: 30 at 0 to 5 μM
Method: To study GSK-3β kinetics, a reaction solution contained 5 ng/μL kinase, 40 mM Tris, pH 7.5, 20 mM MgCl2, 0.1 mg/mL BSA, 50 μM DTT, and varying concentrations of ATP or substrate GS2 (residues 636-662 of human muscle glycogen synthase) versus test samples. The mixture was incubated for 5, 15, 30, and 60 minutes at room temperature followed by the addition of the ADP-Glo′ reagents according to the manufacturer's protocol. The Lineweaver-Burk representation is derived from the double reciprocal plotting of the enzyme kinetic data.
Under a constant concentration of the substrate GS2 (17 μM), ATP concentrations varied from 2 to 50 μM and 30 concentrations varied from 0 to 5 μM. […] In the second set of experiments under a constant concentration of ATP (10 μM), substrate GS2 concentrations varied from 8 to 66 μM and 30 concentrations varied from 0 to 5 μM. […] The enzyme inhibitory behaviors of 30 are similar to that of the parent compound 1 (Liang, et al. (2016) ACS Chem. Neurosci. 7:912-923) and therefore confirm that the new analogues are indeed substrate-competitive inhibitors of GSK-3β.
Target sequence in this assay (P49841 whole entry): as above

GSK-3β [4] = biological target: T1, GSK-3β; experiment: Kinase selectivity profile, GSK-3β; type: biochemical
Method: (§1) Kinase inhibition was assessed with the ADP-Glo Kinase Assay. For screening, 5 ng/μL of kinase was assayed in a reaction containing 50 ng/μL substrate, 40 mM Tris, pH 7.5, 20 mM MgCl2, 0.1 mg/mL bovine serum albumin, 50 μM dithiothreitol (DTT), 25 μM ATP, varying concentrations of test samples or 5% DMSO as vehicle. The reaction mixture was incubated for 1 hour at room temperature followed by the addition of the ADP-Glo′ reagents according to the manufacturer's protocol. The kinase inhibitor staurosporine was used at 1 μM as a reference control. Each data point was collected in quadruplicate of two independent experiments.
(§2) To assess kinase selectivity, compound 30 was screened against a panel of 41 human protein kinases of relevance to Alzheimer's disease and other CNS disorders (Martin, et al. (2013) Aging Res. Rev. 12:289-309). […] The exceptional selectivity of compound 30 to GSK-3β can effectively minimize risk of off-target effects.
Target sequence in this assay (P49841 whole entry): as above

GSK-3α = GSK-3α (Homo sapiens, UniProt P49840); experiment: Kinase selectivity profile, GSK-3α; type: biochemical
Method: as §1, §2

[5] = system: panel of 41 human protein kinases; experiment: Kinase selectivity profile, other kinases of the panel; type: biochemical; conditions: 5 μM
Method: as §1, §2

SH-SY5Y cells = experiment: Cytotoxicity in SH-SY5Y cells; type: cell-based, human; conditions: 1000 μM
Method: (§3) Human neuroblastoma SH-SY5Y cell line (Sigma-Aldrich, Saint Louis, Mo.) was cultured in DMEM/F12 (v/v 1:1) media supplemented with 2 mM glutamine, 10% heat-inactivated fetal bovine serum (FBS) and 1% antibiotics including penicillin and streptomycin. After reaching 70-80% confluence, cells were then subcultured on poly-L-lysine plates with 10 μM retinoic acid in a reduced serum media (1% FBS) to promote neuronal maturation and differentiation as described (Agholme, et al. (2010) J. Alzheimer's Dis. 20: 1069-1082). Cell cultures were incubated at 37° C. in a fully humidified atmosphere containing 5% CO2.
(§4) SH-SY5Y cells were seeded at a density of 3×10^5 cells/mL in a 96-well plate in DMEM/F12 media containing 10 μM retinoic acid and 1% FBS to suppress cell proliferation. Cells were incubated under regular culture conditions for attachment. After 24 hours of plating, the cells were pretreated with different concentrations of test samples or the 0.2% DMSO as a vehicle control for 1 hour and then co-incubated with 10 μM Aβ42 for 72 hours. After the experimental treatment, the cells were subject to a […]® 96 AQueous One Solution Cell Proliferation […] Assay according to the manufacturer's instruction. […] Each data point was collected in triplicate of two independent experiments.

[6] = system: SH-SY5Y cells treated with Aβ42 oligomers; experiment: Anti-Aβ42 neurotoxicity assay; type: cell-based, human
Method: as §3
The toxic oligomers of Aβ42 were prepared as described (Liang, et al. (2016) ACS Chem. Neurosci. 7:912-923). Briefly, lyophilized Aβ42 peptide was dissolved in hexafluoroisopropanol, dried under vacuum, and stored at −20° C. Immediately prior to use, the peptide residue was reconstituted in DMEM/F12 media to make a stock solution at 0.1 mM and incubated at 4° C. for 24 hours to form diffusible oligomers. Aβ42 oligomers at a final concentration of 10 μM were assayed for cell viability.
as §4

GSK-3β [7] = biological target: T1, GSK-3β; conditions: background; cited from earlier work
Target sequence in this assay (P49841 whole entry, species assumed): as the sequence (P49841 whole entry) above

[8] = pH 7.4, 5 hours, room temperature, mean ±SD

Chain of GSK-3α (P49840 whole entry): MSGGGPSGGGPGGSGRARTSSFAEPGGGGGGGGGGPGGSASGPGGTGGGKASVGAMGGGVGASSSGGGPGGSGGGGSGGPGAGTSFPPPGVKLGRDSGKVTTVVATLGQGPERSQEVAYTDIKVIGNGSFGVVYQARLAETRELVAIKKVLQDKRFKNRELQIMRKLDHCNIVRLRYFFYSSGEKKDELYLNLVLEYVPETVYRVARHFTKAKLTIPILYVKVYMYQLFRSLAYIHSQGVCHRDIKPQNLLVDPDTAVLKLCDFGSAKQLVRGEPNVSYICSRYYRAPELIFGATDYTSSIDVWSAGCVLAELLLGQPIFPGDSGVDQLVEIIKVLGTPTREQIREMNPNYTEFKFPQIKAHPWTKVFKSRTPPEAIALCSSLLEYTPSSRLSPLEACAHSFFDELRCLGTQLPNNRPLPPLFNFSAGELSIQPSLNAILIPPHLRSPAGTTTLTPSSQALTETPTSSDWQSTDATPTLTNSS

| SMILES | IC50 (GSK-3β [1]) | R (percent recovery) (in vitro; pH 7.4, 5 hours) [%] | Pe (in vitro; [8]) | permeability compared to isoorientin 1 (in vitro) | Permeability classification (in vitro; PAMPA) | GSK-3β-mediated tau hyperphosphorylation at pS396 [2] | further results |
| --- | --- | --- | --- | --- | --- | --- | --- |
| O=c1cc(-c2ccc(O)c(O)c2)oc2cc(O)cc(O)c12 [Compound 4, luteolin, reference compound] | 3.1 µM | – | – | – | – | – | Pe (in vitro; PAMPA, 5 h, pH 7.4): 1.42 ± 0.07 ×10^−6 cm/s; R (percent recovery) (in vitro; PAMPA, 5 h, pH 7.4): 43%; Papp at 5 h, 20 µM (in vitro; PAMPA, pH 7.4): 1 to 1.5 ×10⁻⁶ cm/s |
| COc1ccc(-c2cc(=O)c3c(OC)c([C@@H]4O[C@H](C(=O)NC(C)C)[C@@H](O)[C@H](O)[C@H]4O)c(OC)cc3o2)cc1OC [Compound 9, (2S,3S,4R,5R,6S)-6-(2-(3,4-Dimethoxyphenyl)-5,7-dimethoxy-4-oxo-4H-chromen-6-yl)-3,4,5-trihydroxy-N-isopropyltetrahydro-2H-pyran-2-carboxamide] | 5.4 ± 0.1 µM | 46 | 1.55 ± 0.06 ×10^−6 cm/s | significant increase in permeability | high (high (Pe > 1.5 × 10^−6 cm/s)) | effectively attenuated tau hyperphosphorylation in a dose-dependent manner; also recorded: attenuate GSK-3β-mediated tau phosphorylation | – |
| COc1ccc(-c2cc(=O)c3c(OC)c([C@@H]4O[C@H](C(=O)NC5CCCCC5)[C@@H](O)[C@H](O)[C@H]4O)c(OC)cc3o2)cc1OC [Compound 17, (2S,3S,4R,5R,6S)—N-Cyclohexyl-6-(2-(3,4-dimethoxyphenyl)-5,7-dimethoxy-4-oxo-4H-chromen-6-yl)-3,4,5-trihydroxytetrahydro-2H-pyran-2-carboxamide] | 9 ± 1.3 µM | 20 | 1.77 ± 0.07 ×10^−6 cm/s | significant increase in permeability | high (high (Pe > 1.5 × 10^−6 cm/s)) | effectively attenuated tau hyperphosphorylation in a dose-dependent manner; also recorded: attenuate GSK-3β-mediated tau phosphorylation | – |
| COc1ccc(-c2cc(=O)c3c(OC)c([C@@H]4O[C@H](C(=O)NCc5ccccc5)[C@@H](O)[C@H](O)[C@H]4O)c(OC)cc3o2)cc1OC [Compound 21, (2S,3S,4R,5R,6S)-6-(2-(3,4-Dimethoxyphenyl)-5,7-dimethoxy-4-oxo-4H-chromen-6-yl)-3,4,5-trihydroxy-N-benzyltetrahydro-2H-pyran-2-carboxamide] | 15.8 ± 1.2 µM | 30 | 1.35 ± 0.08 ×10^−6 cm/s | significant increase in permeability | medium (medium (1.0 × 10^−6 cm/s ≤ Pe ≤ 1.5 × 10^−6 cm/s)) | effectively attenuated tau hyperphosphorylation in a dose-dependent manner; also recorded: attenuate GSK-3β-mediated tau phosphorylation | – |
| COc1ccc(-c2cc(=O)c3c(OC)c([C@@H]4O[C@H](C(=O)N[C@@H](C)C(F)(F)F)[C@@H](O)[C@H](O)[C@H]4O)c(OC)cc3o2)cc1OC [Compound 30, (2S,3S,4R,5R,6S)-6-(2-(3,4-Dimethoxyphenyl)-5,7-dimethoxy-4-oxo-4H-chromen-6-yl)-3,4,5-trihydroxy-N—((S)-1,1,1-trifluoropropan-2-yl)tetrahydro-2H-pyran-2-carboxamide] | < 20 µM and 0.59 µM | 30 | 2.23 ± 0.21 ×10^−6 cm/s | – | high (high (Pe > 1.5 × 10^−6 cm/s)) | effectively attenuated tau hyperphosphorylation in a dose-dependent manner; also recorded: attenuate GSK-3β-mediated tau phosphorylation | LiPE (pIC50−CLogP) (GSK-3β [1]): > 4; potency against GSK-3β relative to epimer 31 (GSK-3β [1]; vs 31): about 4 fold; increase of potency against GSK-3β relative to 1 (GSK-3β [1]; vs isoorientin 1): 310 fold; inhibition of tau hyperphosphorylation compared to TDZD-8 ([2]; 10 μM, TDZD-8 at the same concentration): better inhibition against tau hyperphosphorylation; competition with substrate GS2 (GSK-3β [3]; ATP 10 μM, GS2 8 to 66 μM): competed with the substrate GS2; competition with ATP (GSK-3β [3]; GS2 17 μM, ATP 2 to 50 μM): no competition between ATP and 30; specificity for GSK-3β versus GSK-3α (GSK-3β [4]; 5 μM): 12.3 fold; inhibition at 5 µM (GSK-3β [4]; read-out: GSK-3β inhibition (decrease of kinase activity)): 92.3%; inhibition at 5 µM (GSK-3α): 7.5%; inhibition of 40 out of 41 kinases of the test panel [5]: only marginal or weak inhibition; cytotoxicity (SH-SY5Y cells): no observable cytotoxicity; protection against Aβ42 neurotoxicity ([6]; 1.25 to 20 μM, 10 μM Aβ42, 72 hours): neuroprotection in a dose-dependent manner; also recorded: alleviates Aβ42 induced neurotoxicity; improvement in effectiveness compared to parent compound ([6]; 30 at 10 μM versus 1 at 200 μM): ~20 fold; EC50 ([6]; Homo sapiens, SH-SY5Y, 1 hour pretreatment, 10 μM Aβ42, 72 hours, read-out: neuroprotective potency EC50): 8.7 µM; effective dose, morphological protection from Aβ42 intoxication ([6]; morphological observations): 10 μM; increase of neuroprotective potency relative to 1 ([6]; vs parent compound 1): 5.4 fold |
| CNCCCN1c2ccccc2CCc2ccccc21 [Desipramine, reference compound] | – | – | – | – | – | – | Pe (in vitro; PAMPA, 5 h, pH 7.4): 13.43 ± 0.91 ×10^−6 cm/s; R (percent recovery) (in vitro; PAMPA, 5 h, pH 7.4): 96% |
| O=C([O-])[O-].[Li+].[Li+] [lithium carbonate] | – | – | – | – | – | – | IC50 (GSK-3β [7]): 2000 µM |
